Experiments:
[1] = tested on: Respiratory syncytial virus recombinant with luciferase (RSV-Luc5) in NHBE cells; assay: NHBE RSV-Luc5 384-well Assay (RSV FLUC NHBE 384 V2, Ex. W); assay type: cell-based; details: human respiratory syncytial virus, 72 h, read-out: EC50 RSV FLUC NHBE 384 V2 (per Ex. W)
Description: Example W: NHBE RSV-Luc5 384-well Assay (EC50 RSVFLUC NHBE-384)
Normal Human Bronchial Epithelial (NHBE) cells were purchased from Lonza (Walkersville, MD Cat #CC2540) and maintained in BEGM Bronchial Epithelial Cell Growth Medium BulletKit (Lonza CC-3170).
Cells were thawed, expanded, and were used for experiments at passage 2. Respiratory syncytial virus recombinant with luciferase (RSV-Luc5) (≥1×10^7 Infectious Units/mL (IU/mL) determined by TCID50) was purchased from Microbiologics (Saint Cloud, MN). Viral replication was determined in NHBE cells in the following manner.
(§1) Compounds are prepared in 100% DMSO in 384-well polypropylene plates (Greiner, Monroe, NC, Cat #784201) with 8 compounds per plate in grouped replicates of 4 at 10 serially diluted concentrations (1:3). The serially diluted compounds were transferred to low dead volume Echo plates (Labcyte, Sunnyvale, CA, Cat #LP-0200).
The test compounds were spotted to 384-well assay plates (Greiner, Monroe, NC, Cat#781091) at 200 nL per well using an Echo acoustic dispenser (Labcyte, Sunnyvale, CA). NHBE cells were harvested and suspended in BEGM Bronchial Epithelial Cell Growth Medium BulletKit and seeded to the pre-spotted assay plates at 5,000 cells per well in 30 μL. RSV-Luc5 virus was diluted in BEGM Bronchial Epithelial Cell Growth Medium BulletKit at 500,000 Infectious Units (IU) per mL and 10 μL per well was added to the assay plates containing cells and compounds, for an MOI of 1. The assay plates were incubated for 3 days at 37° C. and 5% CO2. At the end of incubation, One-Glo reagent (Promega, Madison, WI, Cat #E6120) was prepared. The assay plates and One-Glo reagent were equilibrated to room temperature for at least 15 minutes. 40 μL per well of One-Glo reagent was added and the plates were incubated at room temperature for 15 minutes before reading the luminescence signal on an EnVision multimode plate reader (Perkin Elmer, Waltham, MA). Remdesivir was used as positive control and DMSO was used as negative control. Values were normalized to the positive and negative controls (as 0% and 100% replication, respectively) and data was fitted using non-linear regression analysis by Gilead's dose response tool. The EC50 value for each compound was defined as the concentration reducing the viral replication by 50%.

[2] = tested on: Human Rhinovirus 14 (HRV14) in H1-HeLa cells; assay: H1-HeLa HRV-CTG 384-well Assay (Ex. Y), HRV14; assay type: cell-based; details: Rhinovirus B, 96 h; H1-HeLa cells, HRV14 MOI 1.0, 4 days, Celltiter-Glo; read-out: EC50 H1-HeLa_HRV14_HRV-CTG 384-well Assay (per Ex Y)
Description: Example Y: H1-HeLa HRV-CTG 384-well Assay
H1-Hela cell line (ATCC, Manassas, VA, Cat #CRL-1958) was maintained in Dulbecco's […] (DMEM) (Corning, New York, NY, Cat #15-018CM) supplemented with 10% fetal bovine serum (FBS) (Hyclone, Logan, UT, Cat #SH30071-03), and 1× Penicillin-Streptomycin-L-Glutamine (Corning, New York, NY, Cat #30-009-CI). Cells were passaged 2 times per week to maintain sub-confluent densities and were used for experiments at passage 5-30. The Human Rhinovirus 1B (HRV1B) (ATCC, Manassas, VA, Cat #VR-1645) , Human Rhinovirus 14 (HRV14) (ATCC, Manassas, VA, Cat #VR-284), and Human Rhinovirus 16 (HRV16) (ATCC, Manassas, VA, Cat #BR-283) was obtained through ATCC. Viral infection was monitored by determining viability of H1-HeLa cells as described below.
as §1, with “Test molecules” for “Compounds”
The test compounds were spotted to 384-well assay plates (Greiner, Monroe, NC, Cat#781091) at 200 nL per well using an Echo acoustic dispenser (Labcyte, Sunnyvale, CA). H1-HeLa cells were harvested and suspended in DMEM (supplemented with 2% FBS and 1× Penicillin-Streptomycin-L-Glutamine) and seeded to the pre-spotted assay plates at 5,000 cells per well in 30 μL. HRV1B, HRV14, and HRV16 was diluted in DMEM (supplemented with 2% FBS and 1× Penicillin-Streptomycin-L-Glutamine) at 97.1 million Infectious Units (IU) per mL, 151 million IU per mL and 221 million IU per mL respectively. 10 μL of virus per well was added to the assay plates containing cells and compounds, for an MOI of 0.5, 1.0, and 0.25 respectively. The assay plates were incubated for 4 days at 37° C. and 5% CO2. At the end of incubation, Celltiter-Glo (Promega, Madison, WI, Cat #(Ga7573) was prepared. The assay plates and Celltiter-Glo reagent were equilibrated to room temperature for at least 15 minutes. 40 μL per well of Celltiter-Glo reagent was added and the plates were incubated at room temperature for 15 minutes before reading the luminescence signal on an EnVision multimode plate reader (Perkin Elmer, Waltham, MA). Rupintrivir was used as positive control and DMSO was used as negative control. Values were normalized to the positive and negative controls (as 0% and 100% replication, respectively) and data was fitted using non-linear regression analysis by Gilead's dose response tool. The EC50 value for each compound was defined as the concentration reducing viral replication by 50%.

SMILES | EC50 [1] [µM] | EC50 [2] [µM]
N#C[C@]1(COC(=O)C2CC2)O[C@@H](c2ccc3c(N)ncnn23)[C@H](O)[C@@H]1O [Compound 7, ((2R,3S,4R,5S)-5-(4-aminopyrrolo[2,1-f][1,2,4]triazin-7-yl)-2-cyano-3,4-dihydroxytetrahydrofuran-2-yl)methyl cyclopropanecarboxylate] | 10.7 | 27.1
CC(C)C(=O)OC[C@@]1(C#N)O[C@@H](c2ccc3c(N)ncnn23)[C@H](O)[C@@H]1O [Compound 1, ((2R,3S,4R,5S)-5-(4-aminopyrrolo[2,1-f][1,2,4]triazin-7-yl)-2-cyano-3,4-dihydroxytetrahydrofuran-2-yl)methyl isobutyrate] | 14.4 | 5.13
CCC(CC)C(=O)Nc1ncnn2c([C@@H]3O[C@](C#N)(COC(=O)C(CC)CC)[C@@H](O)[C@H]3O)ccc12 [Compound 11, ((2R,3S,4R,5S)-2-cyano-5-(4-(2-ethylbutanamido)pyrrolo[2,1-f][1,2,4]triazin-7-yl)-3,4-dihydroxytetrahydrofuran-2-yl)methyl 2-ethylbutanoate] | 24.6 | 50
CC(C)C(=O)OC[C@@]1(C#N)O[C@@H](c2ccc3c(N)ncnn23)[C@H](OC(=O)C(C)C)[C@@H]1OC(=O)C(C)C [Compound 20, (2R,3S,4S,5S)-5-(4-aminopyrrolo[2,1-f][1,2,4]triazin-7-yl)-2-cyano-2-((isobutyryloxy)methyl)tetrahydrofuran-3,4-diyl bis(2-methylpropanoate)] | 10.4 | 12.8
N#C[C@]1(COC(=O)C2CC3(CCC3)C2)O[C@@H](c2ccc3c(N)ncnn23)[C@H](O)[C@@H]1O [Compound 32, ((2R,3S,4R,5S)-5-(4-aminopyrrolo[2,1-f][1,2,4]triazin-7-yl)-2-cyano-3,4-dihydroxytetrahydrofuran-2-yl)methyl spiro[3.3]heptane-2-carboxylate] | 6.7 | 5.14
CC(C)C(=O)O[C@H]1[C@H](c2ccc3c(N)ncnn23)O[C@](C#N)(COC(=O)c2ccccc2)[C@H]1O [Compound 22, ((2R,3S,4R,5S)-5-(4-aminopyrrolo[2,1-f][1,2,4]triazin-7-yl)-2-cyano-3-hydroxy-4-(isobutyryloxy)tetrahydrofuran-2-yl)methyl benzoate] | 11.3 | 15.9
CC(=O)OC[C@@]1(C#N)O[C@@H](c2ccc3c(N)ncnn23)[C@H](OC(C)=O)[C@@H]1OC(C)=O [Compound 28, (2R,3S,4S,5S)-2-(acetoxymethyl)-5-(4-aminopyrrolo[2,1-f][1,2,4]triazin-7-yl)-2-cyanotetrahydrofuran-3,4-diyl diacetate] | 24.6 | 19.8
N#C[C@]1(COC(=O)C2CCCC2)O[C@@H](c2ccc3c(N)ncnn23)[C@H](O)[C@@H]1O [Compound 18, ((2R,3S,4R,5S)-5-(4-aminopyrrolo[2,1-f][1,2,4]triazin-7-yl)-2-cyano-3,4-dihydroxytetrahydrofuran-2-yl)methyl cyclopentanecarboxylate] | 8.71 | 6.93
CCC(C)(C)CC(=O)OC[C@@]1(C#N)O[C@@H](c2ccc3c(N)ncnn23)[C@H](O)[C@@H]1O [Compound 27, ((2R,3S,4R,5S)-5-(4-aminopyrrolo[2,1-f][1,2,4]triazin-7-yl)-2-cyano-3,4-dihydroxytetrahydrofuran-2-yl)methyl 3,3-dimethylpentanoate] | 12.2 | 50
[H]/N=c1/c2ccc([C@@H]3O[C@](C#N)(CO)[C@@H](O)[C@H]3O)n2ncn1COC(=O)C(C)C [Compound 34, (7-((2S,3R,4S,5R)-5-cyano-3,4-dihydroxy-5-(hydroxymethyl)tetrahydrofuran-2-yl)-4-iminopyrrolo[2,1-f][1,2,4]triazin-3(4H)-yl)methyl isobutyrate] | 39.1 | 50
CC(=O)OC[C@@]1(C#N)O[C@@H](c2ccc3c(N)ncnn23)[C@H](O)[C@@H]1O [Compound 4, ((2R,3S,4R,5S)-5-(4-aminopyrrolo[2,1-f][1,2,4]triazin-7-yl)-2-cyano-3,4-dihydroxytetrahydrofuran-2-yl)methyl acetate] | 10.7 | 4.61
CC(C)C(=O)Nc1ncnn2c([C@@H]3O[C@](C#N)(CO)[C@@H](O)[C@H]3O)ccc12 [Compound 30, N-(7-((2S,3R,4S,5R)-5-cyano-3,4-dihydroxy-5-(hydroxymethyl)tetrahydrofuran-2-yl)pyrrolo[2,1-f][1,2,4]triazin-4-yl)isobutyramide] | 38.5 | 36.2
CC(C)(C)CC(=O)Nc1ncnn2c([C@@H]3O[C@](C#N)(COC(=O)CC(C)(C)C)[C@@H](O)[C@H]3O)ccc12 [Compound 26, ((2R,3S,4R,5S)-2-cyano-5-(4-(3,3-dimethylbutanamido)pyrrolo[2,1-f][1,2,4]triazin-7-yl)-3,4-dihydroxytetrahydrofuran-2-yl)methyl 3,3-dimethylbutanoate] | 26.6 | 50
N#C[C@]1(COC(=O)CC2CCC2)O[C@@H](c2ccc3c(N)ncnn23)[C@H](O)[C@@H]1O [Compound 16, ((2R,3S,4R,5S)-5-(4-aminopyrrolo[2,1-f][1,2,4]triazin-7-yl)-2-cyano-3,4-dihydroxytetrahydrofuran-2-yl)methyl 2-cyclobutylacetate] | 8.36 | 6.99
CC1(C(=O)OC[C@@]2(C#N)O[C@@H](c3ccc4c(N)ncnn34)[C@H](O)[C@@H]2O)CC1 [Compound 15, ((2R,3S,4R,5S)-5-(4-aminopyrrolo[2,1-f][1,2,4]triazin-7-yl)-2-cyano-3,4-dihydroxytetrahydrofuran-2-yl)methyl 1-methylcyclopropane-1-carboxylate] | 8.77 | 50
CC(C)CC(=O)OC[C@@]1(C#N)O[C@@H](c2ccc3c(N)ncnn23)[C@H](O)[C@@H]1O [Compound 3, ((2R,3S,4R,5S)-5-(4-aminopyrrolo[2,1-f][1,2,4]triazin-7-yl)-2-cyano-3,4-dihydroxytetrahydrofuran-2-yl)methyl 3-methylbutanoate] | 8.55 | 9.33

Reference: patent publication US20240199676A1, “ANTIVIRAL COMPOUNDS AND METHODS OF MAKING AND USING THE SAME” (Gilead Sciences, Inc., priority 2022, published 2024)
